Results: patent US20130142815A1, “ALPHA-METHYL-TRYPTOPHAN AS AN INHIBITOR OF INDOLEAMINE DIOXYGENASE” (Georiga Health Sciences Univ. Research Inst., Inc., priority 2010, published 2013)

What was measured:
[1] = test system: MCF7 cells; experiment: Mouse xenograft, MCF7 ER-positive breast cancer cell line; assay type: in vivo; details: in drinking water (2 mg/ml); in the presence of estrogen administration
Experimental: (§1) Mouse xenograft studies were performed with two ER-positive breast cancer cell lines (ZR75.1 and MCF7) and one ER-negative breast cancer cell line (MB231). […] Plasma concentration of alpha-methyltryptophan in mice after two weeks of administration in drinking water was […] was not detectable in control mice.

[2] = biological target: T1, ATB0,+ (Homo sapiens, UniProt Q9UN76); details: cited from earlier work
T1 sequence (Q9UN76 1-642): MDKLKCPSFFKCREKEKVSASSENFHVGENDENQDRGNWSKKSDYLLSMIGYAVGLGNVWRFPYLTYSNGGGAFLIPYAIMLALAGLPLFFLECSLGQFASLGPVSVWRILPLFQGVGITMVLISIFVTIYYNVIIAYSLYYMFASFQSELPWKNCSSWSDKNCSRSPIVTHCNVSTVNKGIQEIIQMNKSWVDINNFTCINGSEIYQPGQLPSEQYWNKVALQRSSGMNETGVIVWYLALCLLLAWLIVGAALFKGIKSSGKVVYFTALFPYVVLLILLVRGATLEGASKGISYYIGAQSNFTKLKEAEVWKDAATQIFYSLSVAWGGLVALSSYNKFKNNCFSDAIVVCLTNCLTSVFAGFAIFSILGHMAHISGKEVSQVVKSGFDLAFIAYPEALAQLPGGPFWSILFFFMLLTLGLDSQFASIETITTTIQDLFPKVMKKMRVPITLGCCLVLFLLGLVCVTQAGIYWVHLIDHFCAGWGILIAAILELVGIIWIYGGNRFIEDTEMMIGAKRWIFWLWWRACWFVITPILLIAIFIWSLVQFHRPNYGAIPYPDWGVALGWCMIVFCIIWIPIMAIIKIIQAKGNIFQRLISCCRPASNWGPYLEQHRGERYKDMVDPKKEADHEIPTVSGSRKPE

[3] = biological target: T1, ATB0,+; set-up: expressed in transfected cells; host or cells: Xenopus oocytes; details: tells transportable substrate from blocker; cited from earlier work
[4] = test system: MB231 cells; experiment: Mouse xenograft, MB231 ER-negative breast cancer cell line; assay type: in vivo; details: in drinking water (2 mg/ml)
Experimental: as §1

[5] = test system: mouse colon cancer cells; experiment: Mouse model of colon cancer, subcutaneous injection of mouse colon cancer cells; assay type: in vivo
Experimental: Further, alpha-methyltryptophan was administered in a mouse model of colon cancer. Following subcutaneous injection of mouse colon cancer cells into mice, mice were treated with alpha-methyltryptophan, either in drinking water or by intraperintoneal injection.

[6] = biological target: T2, indoleamine dioxygenase (IDO) (Mus musculus, UniProt P28776); experiment: Cell-free IDO inhibition assay with mouse intestinal mucosal lysates as the source of IDO; assay type: biochemical
T2 construct: mouse intestinal mucosal lysates were used as the source of IDO in a cell-free assay system; from tissue; host or cells: mouse intestinal mucosa (lysate)
Text: FIG. 1 presents the comparative potencies of D-, L-, and DL-isomers of 1-methyltryptophan (1-MT) and alpha-methyltryptophan (alpha-MT) for inhibition of indoleamine dioxygenase (IDO). […] In these studies, mouse intestinal mucosal lysates were used as the source of IDO in a cell-free assay system. Thus, α-MLT will produce anti-cancer effects in vivo by two different, but synergistic, mechanisms. It will block the transport function of ATB^0,+ in tumor cells, thus preventing entry of essential amino acids and glutamine, and consequently causing growth arrest and apoptosis.

[7] = biological target: T1, ATB0,+; experiment: Inward currents in ATB0,+-expressing Xenopus oocytes; assay type: cell-based; set-up: expressed in transfected cells; host or cells: Xenopus oocytes
Text: Tryptophan is a substrate for ATB^0,+. […] Inhibition of glycine uptake could occur because α-MT is a transportable substrate for ATB^0,+ thus competing with glycine for the uptake process, or because it blocks the transporter without itself being transported. The Xenopus oocyte expression system can differentiate between these two modes of inhibition because transportable substrates would induce inward currents whereas blockers would not.
Next, the potency of α-MT to block the transporter under conditions that simulate those in vivo was determined (with all naturally occurring amino acids present at physiologic concentrations). ATB^0,+ accepts all proteinogenic amino acids except glutamate and aspartate. Therefore, using the Xenopus oocyte expression system, the transport activity of human ATB^0,+ was monitored in the presence of an amino acid mixture consisting of all proteinogenic amino acids, each at its respective physiologic concentration found in plasma. Inward currents were detected under these conditions in oocytes expressing human ATB^0,+. α-MT blocked the ATB^0,+-mediated inward currents in the presence of these amino acids. The inhibition was dose-dependent; the concentration of the blocker necessary to elicit 50% maximal inhibition was 255±24 μM (Karunakaran et al., 2008, Biochem J; 414: 343-355).
Although α-methyl-DL-tryptophan is a blocker of ATB^0,+, its potency is weak. […] The only commercially available α-methyltryptophan is the DL-form. Thus, an optical resolution method was developed to separate the L-isomer from the DL-form (FIG. 2). With this method, the L- and D-isomers of this compound were purified. The potencies of the two isomers as a blocker of ATB^0,+ was examined in Xenopus oocytes using the amino acid mixture simulating the plasma. The concentration of the L-isomer to elicit 50% maximal inhibition was 18±5 μM. This value is 14 times less than the corresponding value for the DL-form. With the D-isomer, the inhibition never increased beyond 40% even at 1 mM.

[8] = test system: ZR75.1 cells; experiment: Mouse xenograft, ZR75.1 ER-positive breast cancer cell line; assay type: in vivo; details: in drinking water (2 mg/ml)
Experimental: as §1

[9] = biological target: T3, IDO in DCs (Mus musculus, UniProt P28776); experiment: Mixed lymphocyte reaction: suppression of CD8+ T cell proliferation by IDO-positive DCs, [3H]thymidine incorporation; assay type: cell-based
T3 construct: endogenous in cells; host or cells: CD11c+ dendritic cells from a CpG 1826-treated C57Bl6 mouse
Experimental: This example complements the cell-free in vitro measurements of IDO activity shown in Example 1 with a functional assay involving T cell proliferation. In this assay, CD8^+ T cells from a transgenic mouse (01.1) which carries the T-cell receptor specific for the ovalbumin peptide antigen Ser-Ile-Ile-Asn-Phe-Glu-Lys-Leu (SIINFEKL) were used. CD11c^+ dendritic cells (DCs) were also prepared from a C57B16 mouse that has been given CpG 1826 intravenously to induce IDO in DCs. A mixed lymphocyte reaction was then performed in which the ability of IDO-positive DCs to suppress the proliferation of CD8^+ T cells was monitored using [^3H]thymidine incorporation as the read-out. Thymidine incorporation in these T cells in the absence of DCs was taken as the control. When the T cells were cultured in the presence of IDO-positive DCs (10^5 cells), thymidine incorporation in T cells was suppressed by 63±3%. […] It is important to note that the concentration of α-MLT needed to inhibit IDO in DCs in this cell-based ex-vivo assay system (0.2 μM) is almost two orders of magnitude less than the IC50 observed for the inhibition of IDO in the cell-free assay system (˜20 μM). Based on these findings, it is expected that α-MLT will function as an anti-cancer agent in vivo by acting through two different mechanisms. […]

T2 sequence (P28776 whole entry): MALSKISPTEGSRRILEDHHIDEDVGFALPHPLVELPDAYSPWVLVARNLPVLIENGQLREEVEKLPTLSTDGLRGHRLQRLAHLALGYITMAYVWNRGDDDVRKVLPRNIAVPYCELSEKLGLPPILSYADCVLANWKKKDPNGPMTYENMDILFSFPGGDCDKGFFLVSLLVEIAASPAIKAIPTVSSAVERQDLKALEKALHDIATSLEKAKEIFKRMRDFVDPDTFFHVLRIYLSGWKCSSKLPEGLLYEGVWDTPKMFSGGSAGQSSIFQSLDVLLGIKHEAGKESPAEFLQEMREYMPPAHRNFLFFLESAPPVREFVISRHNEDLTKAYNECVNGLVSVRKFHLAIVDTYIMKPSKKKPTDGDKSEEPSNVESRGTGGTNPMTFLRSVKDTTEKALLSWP
T3 sequence (P28776 whole entry): as above

In the case of `CC(N)(Cc1c[nH]c2ccccc12)C(=O)O` (racemic) [α-methyl-DL-tryptophan], the “growth of MCF7 cells in xenograft” value [1] is listed as “did not effect the growth”, the “effect on ATB0,+-mediated glycine uptake” value [2] is listed as “inhibited” and the “induction of inward currents in ATB0,+-expressing Xenopus oocytes” value [3] is listed as “did not induce inward currents”. For the same compound, the “growth of MB231 cells in xenograft” value [4] was “did not effect the growth”, the “reduction of tumor growth” value ([5]; in drinking water) was “approximately 50%” and the “reduction of tumor growth” value ([5]; intraperitoneal injection) was “approximately 50%”. The “potency as an IDO inhibitor (comparison, FIG. 1)” value [6] was “significantly greater than that of 1-methyltryptophan”, the “potency as a blocker of ATB0,+ (in words)” value [7] was “weak” and the “growth of ZR75.1 cells in xenograft” value [8] was “reduced growth”.
In the case of `C[C@@](N)(Cc1c[nH]c2ccccc12)C(=O)O` [D-isomer, α-methyl-D-tryptophan], the inhibition at 1000 µM ([7]; even at 1 mM, Xenopus oocytes, amino acid mixture simulating the plasma) is reported as no more than 40%.
With `C[C@](N)(Cc1c[nH]c2ccccc12)C(=O)O` [α-MLT, α-methyl-L-tryptophan] the “potency as an IDO inhibitor (comparison, FIG. 1)” value [6] was “significantly more potent than the D-isomer”, the “potency as a blocker of ATB0,+ (in words)” value [7] was “more potent than α-methyl-D-tryptophan” and the “times less than the corresponding value for the DL-form” value ([7]; 50% maximal inhibition concentration, L-isomer vs DL-form) was 14 times.
With α-methyl-L-tryptophan [α-MLT] the “reversal of suppression of thymidine incorporation in T cells by IDO-positive DCs” value ([9]; 0.2 μM, IDO-positive DCs (10^5 cells)) was “completely reversed”, the “concentration needed to inhibit IDO in DCs in cell-based ex-vivo assay system” value ([9]; cell-based ex-vivo assay) was 0.2 µM and the IC50 ([6]; read-out: IC50 observed for the inhibition of IDO in the cell-free assay system) was roughly 20 µM.
